Reference: patent US20050255568A1, “Methods and compositions for amino acid production” (priority 2003, published 2005)

Assays:
[1] = biological target: T1, O-Acetylhomoserine sulfhydrylase (MetY) (Corynebacterium glutamicum, UniProt Q79VI4); details: cited from earlier work
T1 sequence (Q79VI4 1-437): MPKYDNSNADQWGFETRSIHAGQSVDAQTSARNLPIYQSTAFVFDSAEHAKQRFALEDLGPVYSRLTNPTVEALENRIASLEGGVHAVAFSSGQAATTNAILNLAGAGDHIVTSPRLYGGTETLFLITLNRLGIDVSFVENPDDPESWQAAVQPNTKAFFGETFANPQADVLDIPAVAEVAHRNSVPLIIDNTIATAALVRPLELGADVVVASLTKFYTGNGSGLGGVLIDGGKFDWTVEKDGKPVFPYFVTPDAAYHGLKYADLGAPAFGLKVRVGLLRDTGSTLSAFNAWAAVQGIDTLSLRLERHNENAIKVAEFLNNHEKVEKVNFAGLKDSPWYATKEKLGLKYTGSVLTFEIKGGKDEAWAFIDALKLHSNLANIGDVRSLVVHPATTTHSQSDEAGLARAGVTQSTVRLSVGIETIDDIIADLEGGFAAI

C. glutamicum MetA = biological target: T2, C. glutamicum MetA (Corynebacterium glutamicum, UniProt O68640); assay type: biochemical
T2 construct: crude protein extracts derived from C. glutamicum strains MA-442 and MA-449 which contain both endogenous and episomal C. glutamicum MetA and MetY genes; expressed in transfected cells; host or cells: C. glutamicum MA-442 (MA-428 derivative of ATCC 13032) carrying episomal plasmid MB-4135 (lacIQ-trcRBS, C. glutamicum metA-RBS-metY, both wild type); crude extract
T2 sequence (O68640 1-377): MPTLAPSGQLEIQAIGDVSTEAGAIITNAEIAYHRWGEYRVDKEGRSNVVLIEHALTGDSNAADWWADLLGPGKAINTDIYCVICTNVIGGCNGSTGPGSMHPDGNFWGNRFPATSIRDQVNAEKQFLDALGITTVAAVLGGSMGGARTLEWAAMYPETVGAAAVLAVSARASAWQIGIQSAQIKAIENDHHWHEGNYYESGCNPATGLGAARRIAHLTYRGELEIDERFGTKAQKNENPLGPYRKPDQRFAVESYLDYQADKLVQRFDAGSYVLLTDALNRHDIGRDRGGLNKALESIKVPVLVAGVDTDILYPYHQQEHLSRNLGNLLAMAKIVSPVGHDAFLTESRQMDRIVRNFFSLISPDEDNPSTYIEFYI
Description: MetA activity in C. glutamicum expressing endogenous and episomal metA genes was determined. MetA activity was assayed in crude protein extracts using a protocol described by Kredich and Tomkins (J. Biol. Chem.241(21):4955-4965, 1966). […] Briefly, 1 μg of protein extract was added to a microtiter plate. Reaction mix (250 μl; 100 mM tris-HCl pH 7.5, 2mM 5,5′-Dithiobis(2-nitrobenzoic acid) (DTN), 2 mM sodium EDTA, 2 mM acetyl CoA, 2 mM homoserine) was added to each well of the microtiter plate. In the course of the reactions, MetA activity liberates CoA from acetyl-CoA. A disulfide interchange occurs between the CoA and DTN to produce thionitrobenzoic acid. The production of thionitrobenzoic acid is followed spectrophotometrically. Absorbance at 412 nm was measured every 5 minutes over a period of 30 minutes. A well without protein extract was included as a control. […] Inhibitors were added directly to the reaction mix before it was added to the protein extract. […] Experiments were performed in the presence and absence of IPTG that induces expression of the plasmid borne MetA and MetY genes.

Row | Structure (SMILES) | MetY enzyme activity (in words) [1] | MetA activity of MA-442 extracts in the presence of S-AM (C. glutamicum MetA; 0.2 mM S-AM) | MetA activity of MA-442 extracts in the presence of methionine (C. glutamicum MetA; 5 mM methionine) | reduction in MetY enzyme activity ([1]; 0.5 mM methionine, combined allosteric regulation and repression)
1 | CC(=O)OC[C@H](N)C(=O)O [O-acetylserine] | inhibited |  |  | 
2 | C[S+](CC[C@H](N)C(=O)[O-])C[C@H]1O[C@@H](n2cnc3c(N)ncnc32)[C@H](O)[C@@H]1O (stereo partly drawn) [S-AM, S-adenosyl methionine] |  | reduced |  | 
3 | N[C@@H](CCO)C(=O)O [homoserine] | inhibited |  |  | 
4 | CSCC[C@H](N)C(=O)O [methionine] | inhibited |  | reduced | 99%
